ChEMBL document CHEMBL1938244, “Synthesis, anticancer activity and apoptosis inducing ability of bisindole linked pyrrolo[2,1-c][1,4]benzodiazepine conjugates” (2012)
Active and inactive are the calls of the source. The rule behind the calls is not given here.

Legend:
A549 = experiment: Anticancer activity against human A549 cells by SRB method; format: functional
A2780 = experiment: Anticancer activity against human A2780 cells by SRB method; format: functional
MCF7 [1] = experiment: Anticancer activity against human MCF7 cells by SRB method; format: functional
KB = experiment: Anticancer activity against human KB cells by SRB method; format: functional
COLO 205 = experiment: Anticancer activity against human COLO205 cells by SRB method; format: functional
ZR-75-1 = experiment: Anticancer activity against human ZR-75-1 cells by SRB method; format: functional
SiHa = experiment: Anticancer activity against human SiHa cells by SRB method; format: functional
MCF7 [2] = experiment: Inhibition of HDAC8 protein expression in human MCF7 cells at 2 uM after 24 hrs by Western blotting; format: functional, cell-based
MCF7 [3] = experiment: Inhibition of HDAC3 protein expression in human MCF7 cells at 2 uM after 24 hrs by Western blotting; format: functional, cell-based
MCF7 [4] = experiment: Induction of apoptosis in human MCF7 cells assessed as PARP-cleavage at 8 uM after 24 hrs by Western blot analysis; format: functional, cell-based
MCF7 [5] = experiment: Induction of cell cycle arrest in human MCF7 cells assessed as accumulation of cells in S phase at 2 uM after 24 hrs by flow cytometry (reference value: 14.87%); format: functional
MCF7 [6] = experiment: Anticancer activity against human MCF7 cells assessed as cell death at 2 uM after 24 hrs by MTT assay; format: functional
MCF7 [7] = experiment: Induction of cell cycle arrest in human MCF7 cells assessed as accumulation of cells in G2/M phase at 2 uM after 24 hrs by flow cytometry relative to untreated control; format: functional
MCF7 [8] = experiment: Induction of apoptosis in human MCF7 cells assessed as caspase-7 activation at 8 uM after 24 hrs by Western blot analysis; format: functional, cell-based
MCF7 [9] = experiment: Induction of cell cycle arrest in human MCF7 cells assessed as accumulation of cells in G2/M phase at 4 uM after 24 hrs by flow cytometry relative to untreated control; format: functional
MCF7 [10] = experiment: Inhibition of HDAC1 protein expression in human MCF7 cells at 2 uM after 24 hrs by Western blotting; format: functional, cell-based
MCF7 [11] = experiment: Induction of cell cycle arrest in human MCF7 cells assessed as accumulation of cells in G2/M phase at 4 uM after 24 hrs by flow cytometry (reference value: 25.65%); format: functional
MCF7 [12] = experiment: Induction of cell cycle arrest in human MCF7 cells assessed as accumulation of cells in G1 phase at 8 uM after 24 hrs by flow cytometry relative to untreated control; format: functional
MCF7 [13] = experiment: Induction of cell cycle arrest in human MCF7 cells assessed as accumulation of cells in S phase at 8 uM after 24 hrs by flow cytometry relative to untreated control; format: functional
MCF7 [14] = experiment: Induction of cell cycle arrest in human MCF7 cells assessed as accumulation of cells in G1 phase at 2 uM after 24 hrs by flow cytometry relative to untreated control; format: functional
MCF7 [15] = experiment: Induction of cell cycle arrest in human MCF7 cells assessed as accumulation of cells in G1 phase at 8 uM after 24 hrs by flow cytometry (reference value: 65.58%); format: functional
MCF7 [16] = experiment: Induction of cell cycle arrest in human MCF7 cells assessed as accumulation of cells in S phase at 4 uM after 24 hrs by flow cytometry (reference value: 5.55%); format: functional
MCF7 [17] = experiment: Induction of cell cycle arrest in human MCF7 cells assessed as accumulation of cells in G0 phase at 2 uM after 24 hrs by flow cytometry relative to untreated control; format: functional
MCF7 [18] = experiment: Induction of cell cycle arrest in human MCF7 cells assessed as accumulation of cells in G0 phase at 2 uM after 24 hrs by flow cytometry (reference value: 2.9%); format: functional
MCF7 [19] = experiment: Induction of cell cycle arrest in human MCF7 cells assessed as accumulation of cells in S phase at 2 uM after 24 hrs by flow cytometry relative to untreated control; format: functional
MCF7 [20] = experiment: Induction of cell cycle arrest in human MCF7 cells assessed as accumulation of cells in G0 phase at 4 uM after 24 hrs by flow cytometry relative to untreated control; format: functional
MCF7 [21] = experiment: Induction of cell cycle arrest in human MCF7 cells assessed as accumulation of cells in G1 phase at 4 uM after 24 hrs by flow cytometry (reference value: 65.58%); format: functional
MCF7 [22] = experiment: Induction of cell cycle arrest in human MCF7 cells assessed as accumulation of cells in G0 phase at 8 uM after 24 hrs by flow cytometry relative to untreated control; format: functional
MCF7 [23] = experiment: Inhibition of HDAC2 protein expression in human MCF7 cells at 2 uM after 24 hrs by Western blotting; format: functional, cell-based
Tubulin (Homo sapiens) = Tubulin (Homo sapiens) (UniProt P68371+Q9H4B7+P0DPH7+P68366+Q13509+Q71U36+P04350+Q3ZCM7+P07437+P68363+Q9BQE3+Q6PEY2+Q13885+Q9BVA1+Q9BUF5); experiment: Inhibition of tubulin polymerization in human MCF7 cells at 2 uM after 24 hrs by FITC-conjugated immunostaining assay; format: cell-based
MCF7 [24] = experiment: Induction of cell cycle arrest in human MCF7 cells assessed as accumulation of cells in S phase at 4 uM after 24 hrs by flow cytometry relative to untreated control; format: functional
MCF7 [25] = experiment: Induction of cell cycle arrest in human MCF7 cells assessed as accumulation of cells in G2/M phase at 2 uM after 24 hrs by flow cytometry (reference value: 36.23%); format: functional
MCF7 [26] = experiment: Induction of cell cycle arrest in human MCF7 cells assessed as accumulation of cells in G0 phase at 4 uM after 24 hrs by flow cytometry (reference value: 3.22%); format: functional
MCF7 [27] = experiment: Induction of cell cycle arrest in human MCF7 cells assessed as accumulation of cells in G0 phase at 8 uM after 24 hrs by flow cytometry (reference value: 3.22%); format: functional
MCF7 [28] = experiment: Induction of cell cycle arrest in human MCF7 cells assessed as accumulation of cells in G2/M phase at 8 uM after 24 hrs by flow cytometry (reference value: 25.65%); format: functional
MCF7 [29] = experiment: Induction of cell cycle arrest in human MCF7 cells assessed as accumulation of cells in G1 phase at 2 uM after 24 hrs by flow cytometry (reference value: 46%); format: functional
MCF7 [30] = experiment: Induction of cell cycle arrest in human MCF7 cells assessed as accumulation of cells in G2/M phase at 8 uM after 24 hrs by flow cytometry relative to untreated control; format: functional
MCF7 [31] = experiment: Induction of cell cycle arrest in human MCF7 cells assessed as accumulation of cells in G1 phase at 4 uM after 24 hrs by flow cytometry relative to untreated control; format: functional
MCF7 [32] = experiment: Induction of cell cycle arrest in human MCF7 cells assessed as accumulation of cells in S phase at 8 uM after 24 hrs by flow cytometry (reference value: 5.55%); format: functional
MCF7 [33] = experiment: Increase in p21 protein level in human MCF7 cells at 2 uM after 24 hrs by Western blotting; format: functional, cell-based

Compound	GI50 (A2780) [µM]	GI50 (MCF7 [1]) [µM]	GI50 (KB) [µM]	GI50 (COLO 205) [µM]	GI50 (SiHa) [µM]	inhibition (MCF7 [2])	inhibition (MCF7 [3])	Activity (MCF7 [4])	Activity (MCF7 [5]) [%]	Activity (MCF7 [6])	Activity (MCF7 [7]) [%]	Activity (MCF7 [8])	Activity (MCF7 [9]) [%]	inhibition (MCF7 [10])	Activity (MCF7 [11]) [%]	Activity (MCF7 [12]) [%]	Activity (MCF7 [13]) [%]	Activity (MCF7 [14]) [%]	Activity (MCF7 [15]) [%]	Activity (MCF7 [16]) [%]	other results
COc1cc2c(cc1OCCCCCCOc1ccc(C(c3c[nH]c4ccccc34)c3c[nH]c4ccccc34)cc1)N=C[C@@H]1CCCN1C2=O	2.46	0.14																			GI50 (A549): 29 µM
COc1cc2c(cc1OCCCCOc1ccc(C(c3c[nH]c4ccccc34)c3c[nH]c4ccccc34)cc1)N=C[C@@H]1CCCN1C2=O	2.07	0.18	2.3	24	2.49																GI50 (ZR-75-1): 26.5 µM
Oc1ccc(C(c2c[nH]c3ccccc23)c2c[nH]c3ccccc23)cc1						Active	Active	Active	9	Active	33.7	Active	35.56	Active	34.69	46.19	8.99	53.85	47.59	9.34	Activity (MCF7 [17]): 3.16%; Activity (MCF7 [18]): 3%; Activity (MCF7 [19]): 9.26%; Activity (MCF7 [20]): 5.01%; Activity (MCF7 [21]): 50.97%; Activity (MCF7 [22]): 7.05%; inhibition (MCF7 [23]): Active; inhibition (Tubulin (Homo sapiens)): Active; Activity (MCF7 [24]): 9.78%; Activity (MCF7 [25]): 34%; Activity (MCF7 [26]): 5%; Activity (MCF7 [27]): 7%; Activity (MCF7 [28]): 36.44%; Activity (MCF7 [29]): 54%; Activity (MCF7 [30]): 37.97%; Activity (MCF7 [31]): 49.65%; Activity (MCF7 [32]): 8.97%
COc1cccc2c1C(=O)c1c(O)c3c(c(O)c1C2=O)C[C@@](O)(C(=O)CO)C[C@@H]3O[C@H]1C[C@H](N)[C@H](O)[C@H](C)O1 [DOXORUBICIN]	< 0.1	< 0.1	0.16	14.7	1.9																GI50 (A549): 13 µM; GI50 (ZR-75-1): < 0.1 µM
COc1cc2c(cc1OCCCCOc1cccc(C(c3c[nH]c4ccccc34)c3c[nH]c4ccccc34)c1)N=C[C@@H]1CCCN1C2=O	27	2.01		28.5																	
COc1cc2c(cc1O)N=C[C@@H]1CCCN1C2=O	0.14	0.17	0.17	0.11	0.16	Active	Active	Active	8.26	Active	33.79	Active	11.31	Active	11.33	57.74	4.53	55.11	58.22	9.57	GI50 (A549): 0.16 µM; Activity (MCF7 [17]): 3.14%; Activity (MCF7 [18]): 3.72%; Activity (MCF7 [19]): 8.02%; Activity (MCF7 [20]): 9.27%; Activity (MCF7 [21]): 69.54%; Activity (MCF7 [22]): 29.68%; inhibition (MCF7 [23]): Active; inhibition (Tubulin (Homo sapiens)): inactive; Activity (MCF7 [24]): 8.56%; Activity (MCF7 [25]): 34.4%; Activity (MCF7 [26]): 9.56%; Activity (MCF7 [27]): 30.04%; Activity (MCF7 [28]): 7.15%; Activity (MCF7 [29]): 53.62%; Activity (MCF7 [30]): 8.05%; Activity (MCF7 [31]): 70.84%; Activity (MCF7 [32]): 4.59%
COc1cc2c(cc1OCCCCCCOc1cccc(C(c3c[nH]c4ccccc34)c3c[nH]c4ccccc34)c1)N=C[C@@H]1CCCN1C2=O	2.29	2.01	30.1	2.3	30.8																
Oc1cccc(C(c2c[nH]c3ccccc23)c2c[nH]c3ccccc23)c1						Active	Active	Active	10.1	Active	36.03	Active	36.3	Active	36.08	45.99	10.02	51.23	46.98	9.24	Activity (MCF7 [17]): 2.8%; Activity (MCF7 [18]): 2.9%; Activity (MCF7 [19]): 9.86%; Activity (MCF7 [20]): 3.63%; Activity (MCF7 [21]): 50.68%; Activity (MCF7 [22]): 6.03%; inhibition (MCF7 [23]): Active; inhibition (Tubulin (Homo sapiens)): Active; Activity (MCF7 [24]): 9.41%; Activity (MCF7 [25]): 37%; Activity (MCF7 [26]): 4%; Activity (MCF7 [27]): 6%; Activity (MCF7 [28]): 37.93%; Activity (MCF7 [29]): 50%; Activity (MCF7 [30]): 37.97%; Activity (MCF7 [31]): 50.56%; Activity (MCF7 [32]): 9.08%
COc1cc2c(cc1OCCCCCOc1cccc(C(c3c[nH]c4ccccc34)c3c[nH]c4ccccc34)c1)N=C[C@@H]1CCCN1C2=O	0.18	0.19	2.3	0.16	2.2	Active	Active	Active	14.56	50%	42.67	Active	10.74	Active	9.08	60.92	5.26	38.86	61.55	8.67	Activity (MCF7 [17]): 2.98%; Activity (MCF7 [18]): 3.47%; Activity (MCF7 [19]): 15.42%; Activity (MCF7 [20]): 10.7%; Activity (MCF7 [21]): 71.85%; Activity (MCF7 [22]): 24.81%; inhibition (MCF7 [23]): Active; inhibition (Tubulin (Homo sapiens)): Active; Activity (MCF7 [24]): 8.26%; Activity (MCF7 [25]): 42.61%; Activity (MCF7 [26]): 10.4%; Activity (MCF7 [27]): 24.25%; Activity (MCF7 [33]): Active; Activity (MCF7 [28]): 9.38%; Activity (MCF7 [29]): 39.36%; Activity (MCF7 [30]): 8.99%; Activity (MCF7 [31]): 70.29%; Activity (MCF7 [32]): 4.82%
